Assay results: patent publication US20060257474A1, “Remedies for glomerular diseases” (Kowa Co., Ltd., priority 2002, published 2006)
Structures can show the parent of a compound that is named as a salt.

Tested on: progressive anti-Thy-1 nephritic rat
Test: Pharmacological test to a progressive anti-Thy-1 nephritic rat: total amount of protein excretion in urine
Format: in vivo, Wistar female rats
Conditions: 18 h urine
Procedure: Wistar female rats (5 weeks of age, purchased from Japan SLC Co., Ltd.) were quarantined and acclimatized for 4 days and then used for the test. First, a right kidney of the rat was removed through a flank incision under anesthesia with pentobarbital. After 2 weeks passed, an anti-Thy-1 antibody (monoclonal antibody 1-22-3; purchased from […] Laboratories Co., Ltd.) was intravenously administered (500 μg/rat) into the tail vein to thereby bring about progressive renal damage, and the following tests 1 to 3 were immediately investigated. […] Control group (antibody-treated and compound-non-administered group): N=8, an antibody-non-treated group: N=6. Test 2: dilazep hydrochloride (10 mg/kg) dissolved in a physiological saline was continuously intraperitoneally administered for 10 weeks. Control group (antibody-treated and compound-non-administered group): N=8, an antibody-non-treated group: N=6. […] Control group (antibody-treated and compound-non-administered group): N=10, an antibody-non-treated group: N=6. In each test, after administering the drugs for 10 weeks, urine was taken for 18 hours by means of a metabolic cage (Sugiyama Gen Co., Ltd.) to measure the total amount of protein excretion in urine.

Structure (SMILES) | total amount of protein excretion in urine (dilazep hydrochloride alone, 10 mg/kg intraperitoneally for 10 weeks, vs compound-non-administered control group (FIG. 2)) | total amount of protein excretion in urine (pitavastatin calcium alone, 10 mg/kg orally for 10 weeks, vs compound-non-administered control group (FIG. 1))
COc1cc(C(=O)OCCCN2CCCN(CCCOC(=O)c3cc(OC)c(OC)c(OC)c3)CC2)cc(OC)c1OC [dilazep hydrochloride] | almost the same as that of the compound-non-administered group in the control | –
O=C([O-])C[C@H](O)C[C@H](O)/C=C/c1c(C2CC2)nc2ccccc2c1-c1ccc(F)cc1.O=C([O-])C[C@H](O)C[C@H](O)/C=C/c1c(C2CC2)nc2ccccc2c1-c1ccc(F)cc1.[Ca+2] [pitavastatin calcium] | – | almost the same as that of the compound-non-administered group in the control
